Results: ChEMBL document CHEMBL1143693, “Cancer chemopreventive effects of cycloartane-type and related triterpenoids in in vitro and in vivo models” (J Nat Prod, 2007)

Legend:
[1] = test system: Human gammaherpesvirus 4; experiment: Inhibition of TPA-induced Epstein-Barr virus early antigen activation assessed as EBV-EA induction in Raji cells at 320 nM after 48 hrs relative to TPA; values are per cent of control; conditions: human gammaherpesvirus 4, Raji
[2] = test system: Human gammaherpesvirus 4; experiment: Inhibition of TPA-induced Epstein-Barr virus early antigen activation in Raji cells after 48 hrs; type: functional, organism-based; conditions: human gammaherpesvirus 4, Raji
[3] = Scavenging activity against NO generation in human Chang liver cells assessed as inhibition of NOR1-activation at 350 nM relative to NOR1; type: functional
[4] = test system: Human gammaherpesvirus 4; experiment: Inhibition of TPA-induced Epstein-Barr virus early antigen activation assessed as EBV-EA induction in Raji cells at 3.2 nM after 48 hrs relative to TPA; values are per cent of control; conditions: human gammaherpesvirus 4, Raji
[5] = test system: Human gammaherpesvirus 4; experiment: Inhibition of TPA-induced Epstein-Barr virus early antigen activation assessed as EBV-EA induction in Raji cells at 32 nM after 48 hrs relative to TPA; values are per cent of control; conditions: human gammaherpesvirus 4, Raji
[6] = test system: Human gammaherpesvirus 4; experiment: Inhibition of TPA-induced Epstein-Barr virus early antigen activation assessed as EBV-EA induction in Raji cells at 0.32 nM after 48 hrs relative to TPA; values are per cent of control; conditions: human gammaherpesvirus 4, Raji
[7] = test system: Raji; experiment: Cell viability of Raji cells at 320 nM; type: functional, Homo sapiens

| SMILES | IC50 [2] [µM] | level, % of control at 0.32 µM [1] [%] | Activity [3] | level, % of control at 0.0032 µM [4] [%] | level, % of control at 0.032 µM [5] [%] | level, % of control at 0.00032 µM [6] [%] | Activity [7] [%] |
| --- | --- | --- | --- | --- | --- | --- | --- |
| C=C(CC[C@@H](C)[C@H]1CC[C@@]2(C)[C@@H]3CC[C@H]4C(C)(C)C(=O)CC[C@@]45C[C@@]35CC[C@]12C)C(C)C | 0.0092 | 3.1 | 1.9 | 73.5 | 26.4 | 96.1 | 70 |
| C=C(CC[C@@H](C)[C@H]1CC[C@@]2(C)[C@@H]3CC[C@H]4C(C)(C)[C@@H](OC(=O)/C=C/c5ccc(O)c(OC)c5)CC[C@@]45C[C@@]35CC[C@]12C)C(C)C | 0.0158 | 17.6 | 1.8 | 82 | 54.7 | 100 | 70 |
| CC(C)CCC[C@@H](C)[C@@H]1CC[C@@]2(C)[C@@H]3CC[C@H]4C(C)(C)[C@@H](O)CC[C@@]45C[C@@]35CC[C@]12C | 0.0094 | 0 | 1.6 | 71.2 | 30.8 | 94.2 | 70 |
| CC(C)=CCC[C@@H](C)[C@H]1CC[C@@]2(C)[C@@H]3CC[C@H]4C(C)(C)[C@H](O)CC[C@@]45C[C@@]35CC[C@]12C | 0.0092 | 0 | 1.8 | 70.3 | 29.7 | 93.7 | 70 |
| C=C(CC[C@@H](C)[C@H]1CC[C@@]2(C)[C@@H]3CC[C@H]4[C@H](C)[C@@H](O)CC[C@@]45C[C@@]35CC[C@]12C)C(C)C [CYCLOEUCALENOL] | 0.0089 | 0 | 1.7 | 68.1 | 26.5 | 94.8 | 70 |
| CC1(C)[C@@H](O[C@H]2O[C@H](C(=O)O)[C@@H](O)[C@H](O)[C@H]2O[C@@H]2O[C@H](C(=O)O)[C@@H](O)[C@H](O)[C@H]2O)CC[C@]2(C)[C@H]3C(=O)C=C4[C@@H]5C[C@@](C)(C(=O)O)CC[C@]5(C)CC[C@@]4(C)[C@]3(C)CC[C@@H]12 [GLYCYRRHIZIN] |  |  | 2.2 |  |  |  |  |
| COc1cc(/C=C/C(=O)CC(=O)/C=C/c2ccc(O)c(OC)c2)ccc1O [CURCUMIN] | 0.0102 | 0 |  | 81.7 | 22.8 | 100 | 60 |
| CC1=C(/C=C/C(C)=C/C=C/C(C)=C/C(=O)O)C(C)(C)CCC1 [TRETINOIN] | 0.0154 | 21.6 |  | 76.3 | 49.3 | 100 | 60 |
| CC1(C)N([O])C(c2ccc(C(=O)O)cc2)=[N+]([O-])C1(C)C |  |  | 8 |  |  |  |  |

Second part, led by results:

| IC50 [2] [µM] | SMILES | level, % of control at 0.32 µM [1] [%] | Activity [3] | level, % of control at 0.0032 µM [4] [%] | level, % of control at 0.032 µM [5] [%] | level, % of control at 0.00032 µM [6] [%] | Activity [7] [%] |
| --- | --- | --- | --- | --- | --- | --- | --- |
| 0.0102 | C=C(CC[C@@H](C)[C@H]1CC[C@@]2(C)[C@@H]3CC[C@H]4[C@@H](C)C(=O)CC[C@@]45C[C@@]35CC[C@]12C)C(C)C | 0 | 1.5 | 73.6 | 32.7 | 95.1 | 70 |
| 0.0155 | C=C(CC[C@@H](C)[C@H]1CC[C@@]2(C)[C@@H]3CC[C@H]4[C@H](C)[C@@H](OC(=O)/C=C/c5ccc(O)c(OC)c5)CC[C@@]45C[C@@]35CC[C@]12C)C(C)C [CYCLOEUCALENOL FERULATE] | 14.2 | 1.5 | 81.5 | 53.2 | 100 | 70 |
| 0.01 | CC(C)C(C)CC[C@@H](C)[C@H]1CC[C@@]2(C)[C@@H]3CC[C@H]4[C@H](C)[C@@H](O)CC[C@@]45C[C@@]35CC[C@]12C (stereo not given in full) | 0 | 1.6 | 73.4 | 31.8 | 96.8 | 70 |
| 0.0101 | CC(C)CCC[C@@H](C)C1=CC[C@@]2(C)[C@@H]3CC[C@H]4C(C)(C)[C@@H](O)CC[C@@]45C[C@@]35CC[C@]12C | 0 | 1.6 | 72.6 | 32.1 | 96.5 | 70 |
| 0.0088 | C=C(C)[C@@H](CC)CC[C@@H](C)[C@H]1CC[C@@]2(C)[C@@H]3CC[C@H]4C(C)(C)[C@@H](O)CC[C@@]45C[C@@]35CC[C@]12C [POLYSTHICOL (24S)] | 0 | 2 | 69.1 | 28.9 | 93.1 | 70 |
| 0.01 | C=C(CC[C@@H](C)[C@H]1CC[C@@]2(C)[C@@H]3CC[C@H]4C[C@@H](OC(C)=O)CC[C@@]45C[C@@]35CC[C@]12C)C(C)C | 0 | 1.5 | 73.1 | 31.4 | 96.3 | 70 |
| 0.0086 | C[C@H](C/C=C/C(C)(C)O)[C@H]1CC[C@@]2(C)[C@@H]3CC[C@H]4C(C)(C)C(=O)CC[C@@]45C[C@@]35CC[C@]12C | 0 | 1.9 | 67.2 | 20 | 90.1 | 70 |
| 0.0101 | C=C(CC[C@@H](C)[C@H]1CC[C@@]2(C)[C@@H]3CC[C@H]4[C@H](C)[C@@H](OC(C)=O)CC[C@@]45C[C@@]35CC[C@]12C)C(C)C [CYCLOEUCALENOL ACETATE] | 0 | 1.5 | 73.5 | 32.4 | 96.2 | 70 |
| 0.0093 | C=C(C)[C@@H](C)CC[C@@H](C)[C@H]1CC[C@@]2(C)[C@@H]3CC[C@H]4[C@H](C)[C@H](O)CC[C@@]45C[C@@]35CC[C@]12C | 0 | 1.8 | 71.5 | 29.3 | 94.5 | 70 |
| 0.0088 | CC(C)=CCC[C@@H](C)[C@H]1CC[C@@]2(C)[C@@H]3CC[C@H]4C(C)(C)C(=O)CC[C@@]45C[C@@]35CC[C@]12C [CYCLOARTENONE] | 2.3 | 1.5 | 71.3 | 24.6 | 92.6 | 70 |
| 0.0127 | CC1=C(/C=C/C(C)=C/C=C/C(C)=C/C=C/C=C(C)/C=C/C=C(C)/C=C/C2=C(C)CCCC2(C)C)C(C)(C)CCC1 [BETA CAROTENE] | 8.6 |  | 82.1 | 34.2 | 100 | 70 |
